What follows are molecules tested on GDF8 signaling (p-SMAD-3 (Ser423/425)) (assay: AlphaScreen SureFire SMAD3 (p-Ser423/425) assay, GDF8-stimulated cells (GDF pSMAD)). Details: Mus musculus, MPC-11, GDF8-stimulated pSMAD3, MPC11; tested as the salt form given; read-out: GDF pSMAD (MPC11) (μM), inhibition of GDF8 signaling.
Type: cell-based

Row | SMILES | IC50
1 | Cc1cc(F)c(Cl)cc1-c1ncccc1-c1ccc2ncnc(N)c2c1 [compound 989, 6-(2-(5-chloro-4-fluoro-2-methylphenyl)pyridin-3-yl)quinazolin-4-amine] | 0.692 µM
2 | Cc1cc(-c2ncccc2-c2ccc3ncnc(NC(C)C(N)=O)c3c2)ccc1F (stereo not shown) [compound 1027, 2-((6-(2-(4-fluoro-3-methylphenyl)pyridin-3-yl)quinazolin-4-yl)amino)propanamide] | 10.8 µM

Same assay, conditions: Mus musculus, MPC-11, MPC11; GDF8-stimulated; p-SMAD3 AlphaScreen; read-out: GDF pSMAD (MPC11) (inhibition of GDF8 signaling)

Row | SMILES | IC50
3 | Clc1ccc(Cl)c(-c2ncccc2-c2ccn3ncnc3c2)c1 [compound 873, 7-(2-(2,5-Dichlorophenyl)pyridin-3-yl)-[1,2,4]triazolo[1,5-a]pyridine] | 1.19 µM
4 | Cn1ccc(-c2cnc3ccc(-c4cccnc4-c4ccc(F)c(Cl)c4)cn23)n1 [compound 853, 6-(2-(3-Chloro-4-fluorophenyl)pyridin-3-yl)-3-(1-methyl-1H-pyrazol-3-yl)imidazo[1,2-a]pyridine] | 0.881 µM
5 | Cc1cc(-c2ncc(NCc3cccc4cnccc34)cc2-c2ccc3ncsc3c2)ccc1F [compound 337, 5-(Benzo[d]thiazol-6-yl)-6-(4-fluoro-3-methylphenyl)-N-(isoquinolin-5-ylmethyl)pyridin-3-amine] | 0.479 µM
6 | Cc1cc(-c2ncc(COCC(N)=O)cc2-c2ccc3nccnc3c2)ccc1F [compound 233, 2-((6-(4-Fluoro-3-methylphenyl)-5-(quinoxalin-6-yl)pyridin-3-yl)methoxy)acetamide] | 6.69 µM
7 | Cc1cc(-c2ncccc2-c2ccc3ncc(C(=O)N[C@H]4CCCC[C@@H]4N)n3c2)ccc1F [compound 680, N-((1S,2S)-2-Aminocyclohexyl)-6-(2-(4-fluoro-3-methylphenyl)pyridin-3-yl)imidazo[1,2-a]pyridine-3-carboxamide] | 2.13 µM
8 | Nc1ncnc2ccc(-c3cccnc3-c3cccc(Cl)c3)cc12 [compound 393, 6-(2-(3-Chlorophenyl)pyridin-3-yl)quinazolin-4-amine] | 0.07 µM
9 | COc1ccnc2ccc(-c3cccnc3-c3cccc(Cl)c3)cc12 [compound 841, 6-(2-(3-Chlorophenyl)pyridin-3-yl)-4-methoxyquinoline] | 7.64 µM
10 | Cc1cc(-c2ncccc2-c2ccc3ncc(C(=O)NC4CC(C)(C)N(C)C(C)(C)C4)n3c2)ccc1F [compound 702, 6-(2-(4-Fluoro-3-methylphenyl)pyridin-3-yl)-N-(1,2,2,6,6-pentamethylpiperidin-4-yl)imidazo[1,2-a]pyridine-3-carboxamide] | 0.882 µM
11 | Cc1cc(-c2ncccc2-c2ccc3ncn(C)c3c2)ccc1F [Compound 187, 6-(2-(4-Fluoro-3-methylphenyl)pyridin-3-yl)-1-methyl-1H-benzo[d]imidazole] | 0.228 µM
12 | Cn1cnc2ccc(-c3cccnc3-c3ccc(F)cc3)cc2c1=O [compound 381, 6-(2-(4-Fluorophenyl)pyridin-3-yl)-3-methylquinazolin-4(3H)-one] | 2.61 µM
13 | Cc1cc(-c2ncccc2-c2ccc3ncnc(Oc4ccc5ncccc5c4)c3c2)ccc1F [compound 446, 6-(2-(4-Fluoro-3-methylphenyl)pyridin-3-yl)-4-(quinolin-6-yloxy)quinazoline] | 0.398 µM
14 | Cc1ccccc1-c1ncccc1-c1ccc2ncnc(N)c2c1 [compound 462, 6-(2-(o-Tolyl)pyridin-3-yl)quinazolin-4-amine] | 18.4 µM
15 | O=c1[nH]cnc2ccc(-c3cccnc3-c3ccc(F)c(Cl)c3)nc12 [compound 960, 6-(2-(3-Chloro-4-fluorophenyl)pyridin-3-yl)pyrido[3,2-d]pyrimidin-4(3H)-one] | 1.69 µM
16 | COc1ncnc2ccc(-c3cccnc3-c3ccc(F)c(C)c3)cc12 [compound 375, 6-(2-(4-Fluoro-3-methylphenyl)pyridin-3-yl)-4-methoxyquinazoline] | 0.152 µM
17 | Cc1ccc(Cl)cc1-c1ncccc1-c1ccc2ncnc(N)c2c1 [compound 463, 6-(2-(5-Chloro-2-methylphenyl)pyridin-3-yl)quinazolin-4-amine] | 0.297 µM
18 | Cc1cccc(-c2ncccc2-c2ccc3nc(N)ncc3c2)c1 [compound 384, 6-(2-(m-Tolyl)pyridin-3-yl)quinazolin-2-amine] | 7.79 µM
19 | COc1ccnc2ccc(-c3cccnc3-c3cc(Cl)ccc3F)cc12 [compound 840, 6-(2-(5-Chloro-2-fluorophenyl)pyridin-3-yl)-4-methoxyquinoline] | 8.14 µM
20 | Cc1cc(-c2ncccc2-c2ccc3ncnc(Nc4ccc(N5CCOCC5)cc4)c3c2)ccc1F [compound 408, 6-(2-(4-Fluoro-3-methylphenyl)pyridin-3-yl)-N-(4-morpholinophenyl)quinazolin-4-amine] | 0.673 µM
21 | CCNC(=O)Nc1cnc(-c2ccc(F)c(C)c2)c(-c2ccc3nccn3c2)c1 [compound 220, 1-Ethyl-3-(6-(4-fluoro-3-methylphenyl)-5-(imidazo[1,2-a]pyridin-6-yl)pyridin-3-yl)urea] | 8.62 µM
22 | CN1CCC(NC(=O)c2cnc3ccc(-c4cccnc4-c4cc(Cl)ccc4F)cn23)CC1 [compound 722, 6-(2-(5-Chloro-2-fluorophenyl)pyridin-3-yl)-N-(1-methylpiperidin-4-yl)imidazo[1,2-a]pyridine-3-carboxamide] | 0.0639 µM
23 | Cc1cc(-c2ncc(NCc3cccc4cccnc34)cc2-c2ccc3ncsc3c2)ccc1F [compound 336, 5-(Benzo[d]thiazol-6-yl)-6-(4-fluoro-3-methylphenyl)-N-(quinolin-8-ylmethyl)pyridin-3-amine] | 0.764 µM
24 | N#Cc1cnc2ccc(-c3cccnc3-c3cc(F)c(F)cc3F)cn12 [compound 695, 6-(2-(2,4,5-Trifluorophenyl)pyridin-3-yl)imidazo[1,2-a]pyridine-3-carbonitrile] | 1.52 µM
25 | Clc1ccc(Cl)c(-c2ncccc2-c2ccc3ncsc3c2)c1 [compound 869, 6-(2-(2,5-Dichlorophenyl)pyridin-3-yl)benzo[d]thiazole] | 0.688 µM
26 | Fc1ccc(-c2ncccc2-c2ccc3ncc(-c4ncn[nH]4)n3c2)cc1Cl [compound 844, 6-(2-(3-Chloro-4-fluorophenyl)pyridin-3-yl)-3-(1H-1,2,4-triazol-5-yl)imidazo[1,2-a]pyridine] | 0.0324 µM
27 | Cc1cc(-c2ncccc2-c2ccc3ncnc(NCCCN4CCOCC4)c3c2)ccc1F [compound 424, 6-(2-(4-Fluoro-3-methylphenyl)pyridin-3-yl)-N-(3-morpholinopropyl)quinazolin-4-amine] | 2.43 µM
28 | CN1CCC(NC(=O)c2cnc3ccc(-c4cccnc4-c4cc(Cl)c(F)cc4F)cn23)CC1 [compound 723, 6-(2-(5-Chloro-2,4-difluorophenyl)pyridin-3-yl)-N-(1-methylpiperidin-4-yl)imidazo[1,2-a]pyridine-3-carboxamide] | 0.102 µM
29 | COc1ncnc2ccc(-c3cccnc3-c3ccc(F)c(Cl)c3)cc12 [compound 395, 6-(2-(3-Chloro-4-fluorophenyl)pyridin-3-yl)-4-methoxyquinazoline] | 0.959 µM
30 | Fc1ccc(-c2ncccc2-c2ccc3nc[nH]c3c2)cc1Cl [compound 782, 6-(2-(3-Chloro-4-fluorophenyl)pyridin-3-yl)-1H-benzo[d]imidazole] | 0.332 µM
31 | Fc1ccc(-c2ncccc2-c2ccc3ncccc3n2)cc1C1CC1 [compound 216, 2-(2-(3-cyclopropyl-4-fluorophenyl)pyridin-3-yl)-1,5-naphthyridine] | 0.737 µM

— US10858335B2 (Rigel Pharmaceuticals, Inc., priority 2014, dated 2020)
